Test results taken from PubChem BioAssay AID1963981 (Molecular Pharmacology Branch, DTP, NCI, 2024).
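Note: spheroids exposed to agents for seven days before the viability read.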

What follows are molecules tested on 354836-022-R-J1-PDC multicell spheroid viability (assay: Anticancer human tumor 354836-022-R-J1-PDC patient-derived head and neck squamous cell carcinoma cell line growth inhibition [PI3K]). Details: second compound 0.1 µM; first compound 1 µM; active compounds read low.
Summary of the method: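 Combination activity was assessed by viability in multicellular tumor spheroids carrying HUVEC and MSC components. Agents were tested with PI3K inhibitors from a Cmax-based top dose (or 10 microM) downward in half-log increments.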
For `CC1(C)CCC(Nc2ncc(C(F)(F)F)c(-c3c[nH]c4c(P(C)(C)=O)c(C#N)ccc34)n2)CN1` (stereo unspecified) + Cc1nc(NC(=O)N2CCCC2C(N)=O)sc1-c1ccnc(C(C)(C)C(F)(F)F)c1, the viability, T/C was 23%.

Same assay, conditions: second compound 0.1 µM; first compound 3.16 µM; active compounds read low
For `C=CC(=O)N1CCN(c2nc(=O)n(-c3c(C)ccnc3C(C)C)c3nc(-c4c(O)cccc4F)c(F)cc23)C(C)C1` (stereo unspecified) + CC(Nc1ncnc2nc[nH]c12)c1cc2cccc(Cl)c2c(=O)n1-c1ccccc1, the viability, T/C was 108%. With `C#Cc1c(F)ccc2cc(O)cc(-c3ncc4c(N5CC6CCC(C5)N6)nc(OCC56CCCN5CC(F)C6)nc4c3F)c12` (stereo unspecified) + CC(Nc1ccc2c(c1)OCCn1cc(N3C(=O)OCC3C(F)F)nc1-2)C(N)=O the viability, T/C was 88.8%. Work on `CC(C)NCC(C(=O)N1CCN(c2ncnc3c2C(C)CC3O)CC1)c1ccc(Cl)cc1` (stereo unspecified) + COc1c(OCCCN2CCOCC2)ccc2c3n(c(=NC(=O)c4cnc(N)nc4)nc12)CCN3 yielded a viability, T/C of 3.65%. Work on `CC1(C)CCC(Nc2ncc(C(F)(F)F)c(-c3c[nH]c4c(P(C)(C)=O)c(C#N)ccc34)n2)CN1` (stereo unspecified) + Cc1nc(NC(=O)N2CCCC2C(N)=O)sc1-c1ccnc(C(C)(C)C(F)(F)F)c1 yielded a viability, T/C of 28.9%.

Same assay, conditions: second compound 0.1 µM; first compound 10 µM; active compounds read low
Work on `C=CC(=O)N1CCN(c2nc(=O)n(-c3c(C)ccnc3C(C)C)c3nc(-c4c(O)cccc4F)c(F)cc23)C(C)C1` (stereo unspecified) + CC(Nc1ncnc2nc[nH]c12)c1cc2cccc(Cl)c2c(=O)n1-c1ccccc1 yielded a viability, T/C of 95.5%. In the case of `C#Cc1c(F)ccc2cc(O)cc(-c3ncc4c(N5CC6CCC(C5)N6)nc(OCC56CCCN5CC(F)C6)nc4c3F)c12` (stereo unspecified) + CC(Nc1ccc2c(c1)OCCn1cc(N3C(=O)OCC3C(F)F)nc1-2)C(N)=O, the viability, T/C is reported as 71.8%. `CC(C)NCC(C(=O)N1CCN(c2ncnc3c2C(C)CC3O)CC1)c1ccc(Cl)cc1` (stereo unspecified) + COc1c(OCCCN2CCOCC2)ccc2c3n(c(=NC(=O)c4cnc(N)nc4)nc12)CCN3 gave a viability, T/C of 1.29%. `CC1(C)CCC(Nc2ncc(C(F)(F)F)c(-c3c[nH]c4c(P(C)(C)=O)c(C#N)ccc34)n2)CN1` (stereo unspecified) + Cc1nc(NC(=O)N2CCCC2C(N)=O)sc1-c1ccnc(C(C)(C)C(F)(F)F)c1 was tested, and the viability, T/C was 1.52%.

Same assay, conditions: second compound 0.316 µM; first compound 0.00316 µM; active compounds read low
With `CCN1CCN(Cc2ccc(Nc3ncc(F)c(-c4cc(F)c5nc(C)n(C(C)C)c5c4)n3)nc2)CC1` + CC(Nc1ncnc2nc[nH]c12)c1cc2cccc(Cl)c2c(=O)n1-c1ccccc1 the viability, T/C was 103%.

Same assay, conditions: second compound 0.316 µM; first compound 0.01 µM; active compounds read low
`CCN1CCN(Cc2ccc(Nc3ncc(F)c(-c4cc(F)c5nc(C)n(C(C)C)c5c4)n3)nc2)CC1` + CC(Nc1ncnc2nc[nH]c12)c1cc2cccc(Cl)c2c(=O)n1-c1ccccc1 was tested, and the viability, T/C was 102%.

Same assay, conditions: second compound 0.316 µM; first compound 0.0316 µM; active compounds read low
For `C=CC(=O)N1CCN(c2nc(=O)n(-c3c(C)ccnc3C(C)C)c3nc(-c4c(O)cccc4F)c(F)cc23)C(C)C1` (stereo unspecified) + CC(Nc1ncnc2nc[nH]c12)c1cc2cccc(Cl)c2c(=O)n1-c1ccccc1, the viability, T/C was 110%. With `CCN1CCN(Cc2ccc(Nc3ncc(F)c(-c4cc(F)c5nc(C)n(C(C)C)c5c4)n3)nc2)CC1` + CC(Nc1ncnc2nc[nH]c12)c1cc2cccc(Cl)c2c(=O)n1-c1ccccc1 the viability, T/C was 102%. Work on `C#Cc1c(F)ccc2cc(O)cc(-c3ncc4c(N5CC6CCC(C5)N6)nc(OCC56CCCN5CC(F)C6)nc4c3F)c12` (stereo unspecified) + CC(Nc1ccc2c(c1)OCCn1cc(N3C(=O)OCC3C(F)F)nc1-2)C(N)=O yielded a viability, T/C of 70.8%. `CC(C)NCC(C(=O)N1CCN(c2ncnc3c2C(C)CC3O)CC1)c1ccc(Cl)cc1` (stereo unspecified) + COc1c(OCCCN2CCOCC2)ccc2c3n(c(=NC(=O)c4cnc(N)nc4)nc12)CCN3 gave a viability, T/C of 11.6%. `CC1(C)CCC(Nc2ncc(C(F)(F)F)c(-c3c[nH]c4c(P(C)(C)=O)c(C#N)ccc34)n2)CN1` (stereo unspecified) + Cc1nc(NC(=O)N2CCCC2C(N)=O)sc1-c1ccnc(C(C)(C)C(F)(F)F)c1 was tested, and the viability, T/C was 17.8%.

Same assay, conditions: second compound 0.316 µM; first compound 0.1 µM; active compounds read low
Molecule `C=CC(=O)N1CCN(c2nc(=O)n(-c3c(C)ccnc3C(C)C)c3nc(-c4c(O)cccc4F)c(F)cc23)C(C)C1` (stereo unspecified) + CC(Nc1ncnc2nc[nH]c12)c1cc2cccc(Cl)c2c(=O)n1-c1ccccc1 has a viability, T/C of 106%. Work on `CCN1CCN(Cc2ccc(Nc3ncc(F)c(-c4cc(F)c5nc(C)n(C(C)C)c5c4)n3)nc2)CC1` + CC(Nc1ncnc2nc[nH]c12)c1cc2cccc(Cl)c2c(=O)n1-c1ccccc1 yielded a viability, T/C of 104%. `C#Cc1c(F)ccc2cc(O)cc(-c3ncc4c(N5CC6CCC(C5)N6)nc(OCC56CCCN5CC(F)C6)nc4c3F)c12` (stereo unspecified) + CC(Nc1ccc2c(c1)OCCn1cc(N3C(=O)OCC3C(F)F)nc1-2)C(N)=O gave a viability, T/C of 89.1%. In the case of `CC(C)NCC(C(=O)N1CCN(c2ncnc3c2C(C)CC3O)CC1)c1ccc(Cl)cc1` (stereo unspecified) + COc1c(OCCCN2CCOCC2)ccc2c3n(c(=NC(=O)c4cnc(N)nc4)nc12)CCN3, the viability, T/C is reported as 11.2%. For `CC1(C)CCC(Nc2ncc(C(F)(F)F)c(-c3c[nH]c4c(P(C)(C)=O)c(C#N)ccc34)n2)CN1` (stereo unspecified) + Cc1nc(NC(=O)N2CCCC2C(N)=O)sc1-c1ccnc(C(C)(C)C(F)(F)F)c1, the viability, T/C was 20%.

Same assay, conditions: second compound 0.316 µM; first compound 0.316 µM; active compounds read low
Work on `C=CC(=O)N1CCN(c2nc(=O)n(-c3c(C)ccnc3C(C)C)c3nc(-c4c(O)cccc4F)c(F)cc23)C(C)C1` (stereo unspecified) + CC(Nc1ncnc2nc[nH]c12)c1cc2cccc(Cl)c2c(=O)n1-c1ccccc1 yielded a viability, T/C of 103%. `CCN1CCN(Cc2ccc(Nc3ncc(F)c(-c4cc(F)c5nc(C)n(C(C)C)c5c4)n3)nc2)CC1` + CC(Nc1ncnc2nc[nH]c12)c1cc2cccc(Cl)c2c(=O)n1-c1ccccc1 gave a viability, T/C of 89.4%. With `C#Cc1c(F)ccc2cc(O)cc(-c3ncc4c(N5CC6CCC(C5)N6)nc(OCC56CCCN5CC(F)C6)nc4c3F)c12` (stereo unspecified) + CC(Nc1ccc2c(c1)OCCn1cc(N3C(=O)OCC3C(F)F)nc1-2)C(N)=O the viability, T/C was 79.5%. `CC(C)NCC(C(=O)N1CCN(c2ncnc3c2C(C)CC3O)CC1)c1ccc(Cl)cc1` (stereo unspecified) + COc1c(OCCCN2CCOCC2)ccc2c3n(c(=NC(=O)c4cnc(N)nc4)nc12)CCN3 gave a viability, T/C of 5.73%. In the case of `CC1(C)CCC(Nc2ncc(C(F)(F)F)c(-c3c[nH]c4c(P(C)(C)=O)c(C#N)ccc34)n2)CN1` (stereo unspecified) + Cc1nc(NC(=O)N2CCCC2C(N)=O)sc1-c1ccnc(C(C)(C)C(F)(F)F)c1, the viability, T/C is reported as 19.3%.
